tested on: beta-TC6 cells; assay: Insulin HTRF assay (relative activity Ar) in beta-TC6 cells; assay type: cell-based, mouse; details: Mus musculus, Beta-TC6, 4 h, insulin HTRF, supernatant of beta-TC6 cells, incubation with test compound at 37°C for 2, 3, 4h; read-out: Ar (relative activity)
Method in brief: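 beta-TC6 cells (15k/well, seeded 24 or 48 h) washed, then exposed to compound in induction buffer (0.5% DMSO final) for 2, 3 or 4 h at 37°C.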

SMILES | Emax
CC(=O)Nc1ccc(Nc2nccc3[nH]c(-c4ccsc4)cc23)cc1 [Compound 249, N-[4-[[2-(3-thienyl)-1H-pyrrolo[3,2-c]pyridin-4-yl]amino]phenyl]acetamide] | > 100%
c1ccc(Nc2nccc3[nH]c(-c4ccsc4)cc23)nc1 [Compound 260, N-(2-pyridyl)-2-(3-thienyl)-1H-pyrrolo[3,2-c]pyridin-4-amine] | 50 to 100%
Cc1ccc(-c2nc3c(Nc4ccccc4)nccc3[nH]2)cc1 [Compound 380, N-phenyl-2-(p-tolyl)-1H-imidazo[4,5-c]pyridin-4-amine] | 30 to 50%
CN(C)c1cccc(Nc2cc3c(cn2)nc(NCc2ccccc2)n3C)c1 [Compound 619, N2-benzyl-N6-[3-(dimethylamino)phenyl]-1-methyl-imidazo[4,5-c]pyridine-2,6-diamine] | 50 to 100%
CN(C)C(=O)c1ccc(Nc2cc3[nH]c(-c4ccccc4)cc3cn2)cc1 [Compound 182, N,N-dimethyl-4-[(2-phenyl-1H-pyrrolo[3,2-c]pyridin-6-yl)amino]benzamide] | 50 to 100%
COc1ccc(Nc2cc3c(cn2)nc(-c2ccccc2)n3C)cn1 [Compound 704, N-(6-methoxy-3-pyridyl)-1-methyl-2-phenyl-imidazo[4,5-c]pyridin-6-amine] | 30 to 50%
COc1cccc(Nc2cc3[nH]c(-c4cncn4C)cc3cn2)c1 [Compound 101, N-(3-methoxyphenyl)-2-(3-methylimidazol-4-yl)-1H-pyrrolo[3,2-c]pyridin-6-amine] | 50 to 100%
CN(C)C(=O)c1ccc(-c2cc3cnc(Nc4cccc(OC(F)(F)F)c4)cc3[nH]2)cc1 [Compound 33, N,N-dimethyl-4-[6-[3-(trifluoromethoxy)anilino]-1H-pyrrolo[3,2-c]pyridin-2-yl]benzamide] | 30 to 50%
CNc1nc2cnc(Nc3ccc(NC(C)=O)cc3)cc2n1-c1cccc(C(F)(F)F)c1 [Compound 540, N-[4-[[2-(methylamino)-1-[3-(trifluoromethyl)phenyl]imidazo[4,5-c]pyridin-6-yl]amino]phenyl]acetamide] | 30 to 50%
CNc1nc2cnc(Nc3ccc(NC(C)=O)cc3)cc2n1CC1CC1 [Compound 568, N-[4-[[1-(cyclopropylmethyl)-2-(methylamino)imidazo[4,5-c]pyridin-6-yl]amino]phenyl]acetamide] | 50 to 100%
COc1cccc(Nc2nccc3[nH]c(-c4ccc(OC)c(OC)c4)nc23)c1 [Compound 341, 2-(3,4-dimethoxyphenyl)-N-(3-methoxyphenyl)-1H-imidazo[4,5-c]pyridin-4-amine] | 50 to 100%
CS(=O)(=O)Nc1cccc(Nc2nccc3[nH]c(-c4ccc(O)cc4)nc23)c1 [Compound 366, N-[3-[[2-(4-hydroxyphenyl)-1H-imidazo[4,5-c]pyridin-4-yl]amino]phenyl]methanesulfonamide] | 30 to 50%
CN(C)c1cccc(Nc2cc3[nH]c(-c4cncn4C)cc3cn2)c1 [Compound 104, N1,N1-dimethyl-N3-[2-(3-methylimidazol-4-yl)-1H-pyrrolo[3,2-c]pyridin-6-yl]benzene-1,3-diamine] | 50 to 100%
Cn1c(NCc2ccccc2)nc2cnc(-c3cccs3)cc21 [Compound 841, N-benzyl-1-methyl-6-(2-thienyl)imidazo[4,5-c]pyridin-2-amine] | 30 to 50%
CN(C)C(=O)c1ccc(Nc2cc3[nH]c(-c4cccc(F)c4)cc3cn2)cc1 [Compound 14, 4-[[2-(3-fluorophenyl)-1H-pyrrolo[3,2-c]pyridin-6-yl]amino]-N,N-dimethyl-benzamide] | 30 to 50%
CC(=O)Nc1cccc(Nc2cc3[nH]c(-c4ccc(C(=O)N(C)C)cc4)cc3cn2)c1 [Compound 41, 4-[6-(3-acetamidoanilino)-1H-pyrrolo[3,2-c]pyridin-2-yl]-N,N-dimethyl-benzamide] | > 100%
Cc1cccc(CNc2nc3cnc(Nc4ccc(F)cc4)cc3n2C)c1 [Compound 582, N6-(4-fluorophenyl)-1-methyl-N2-(m-tolylmethyl)imidazo[4,5-c]pyridine-2,6-diamine] | 30 to 50%
CN(C)C(=O)c1ccc(-c2cc3cnc(Nc4cccnc4)cc3n2C)cc1 [Compound 47, N,N-dimethyl-4-[1-methyl-6-(3-pyridylamino)pyrrolo[3,2-c]pyridin-2-yl]benzamide] | 50 to 100%
COc1ccc(Nc2nccc3[nH]c(-c4ccc5c(c4)OCCO5)nc23)cc1OC [Compound 411, 2-(2,3-dihydro-1,4-benzodioxin-6-yl)-N-(3,4-dimethoxyphenyl)-1H-imidazo[4,5-c]pyridin-4-amine] | 50 to 100%
Cn1c(-c2ccsc2)cc2c(Nc3ccc4c(c3)OCO4)nccc21 [Compound 283, N-(1,3-benzodioxol-5-yl)-1-methyl-2-(3-thienyl)pyrrolo[3,2-c]pyridin-4-amine] | 30 to 50%

SMILES | Emax
COc1cccc(Nc2nccc3[nH]c(-c4ccc5c(c4)OCCO5)nc23)c1 [Compound 410, 2-(2,3-dihydro-1,4-benzodioxin-6-yl)-N-(3-methoxyphenyl)-1H-imidazo[4,5-c]pyridin-4-amine] | 30 to 50%
CNc1nc2cnc(Nc3ccc(OC(F)(F)F)cc3)cc2n1CCOC [Compound 773, 1-(2-methoxyethyl)-N2-methyl-N6-[4-(trifluoromethoxy)phenyl]imidazo[4,5-c]pyridine-2,6-diamine] | 0 to 30%
CN(C)C(=O)c1ccc(Nc2cc3[nH]c(-c4ccc(C(=O)N(C)C)cc4)cc3cn2)cc1 [Compound 40, 4-[6-[4-(dimethylcarbamoyl)anilino]-1H-pyrrolo[3,2-c]pyridin-2-yl]-N,N-dimethyl-benzamide] | > 100%
CNc1nc2cnc(Nc3ccc(N4CCN(C)CC4)cc3)cc2n1CC1CC1 [Compound 572, 1-(cyclopropylmethyl)-N2-methyl-N6-[4-(4-methylpiperazin-1-yl)phenyl]imidazo[4,5-c]pyridine-2,6-diamine] | 50 to 100%
c1cncc(Nc2nccc3[nH]c(-c4ccco4)nc23)c1 [Compound 465, 2-(2-furyl)-N-(3-pyridyl)-1H-imidazo[4,5-c]pyridin-4-amine] | 0 to 30%
COc1ccc(-c2nc3c(N4CCOCC4)nccc3[nH]2)cc1OC [Compound 353, 4-[2-(3,4-dimethoxyphenyl)-1H-imidazo[4,5-c]pyridin-4-yl]morpholine] | 50 to 100%
COCCNc1nc2cnc(-c3cccc(OC(F)(F)F)c3)cc2n1C [Compound 855, N-(2-methoxyethyl)-1-methyl-6-[3-(trifluoromethoxy)phenyl]imidazo[4,5-c]pyridin-2-amine] | 30 to 50%
CC(=O)N(C)c1cccc(-c2cc3cnc(Nc4ccccn4)cc3n2C)c1 [Compound 167, N-methyl-N-[3-[1-methyl-6-(2-pyridylamino)pyrrolo[3,2-c]pyridin-2-yl]phenyl]acetamide] | 30 to 50%
Fc1cccc(-c2cc3c(Nc4ccc5c(c4)OCO5)nccc3[nH]2)c1 [Compound 203, N-(1,3-benzodioxol-5-yl)-2-(3-fluorophenyl)-1H-pyrrolo[3,2-c]pyridin-4-amine] | 30 to 50%
COc1cc(-n2cnc3cnc(-c4cccc(C(N)=O)c4)cc32)cc(OC)c1OC [Compound 732, 3-[1-(3,4,5-trimethoxyphenyl)imidazo[4,5-c]pyridin-6-yl]benzamide] | 30 to 50%
FC(F)(F)c1cccc(-c2cc3c(Nc4cccnc4)nccc3[nH]2)c1 [Compound 196, N-(3-pyridyl)-2-[3-(trifluoromethyl)phenyl]-1H-pyrrolo[3,2-c]pyridin-4-amine] | 50 to 100%
CNc1nc2cnc(Nc3ccc(OC)cc3)cc2n1Cc1ccccc1 [Compound 531, 1-benzyl-N6-(4-methoxyphenyl)-N2-methyl-imidazo[4,5-c]pyridine-2,6-diamine] | 30 to 50%
Cn1c(NCC2CC2)nc2cnc(-c3ccccc3)cc21 [Compound 826, N-(cyclopropylmethyl)-1-methyl-6-phenyl-imidazo[4,5-c]pyridin-2-amine] | 30 to 50%
CN1CCN(c2nccc3[nH]c(-c4ccccc4)nc23)CC1 [Compound 334, 4-(4-methylpiperazin-1-yl)-2-phenyl-1H-imidazo[4,5-c]pyridine] | 30 to 50%
Oc1cccc(Nc2nccc3[nH]c(-c4ccc(F)c(F)c4)nc23)c1 [Compound 441, 3-[[2-(3,4-difluorophenyl)-1H-imidazo[4,5-c]pyridin-4-yl]amino]phenol] | 30 to 50%
CCN(CC)CCNC(=O)c1ccc(Nc2nccc3[nH]c(-c4cccnc4)nc23)cc1 [Compound 359, N-(2-diethylaminoethyl)-4-[[2-(3-pyridyl)-1H-imidazo[4,5-c]pyridin-4-yl]amino]benzamide] | 30 to 50%
Cc1cccc(Nc2cc3c(cn2)cc(-c2cccnc2)n3C)c1 [Compound 90, 1-methyl-N-(m-tolyl)-2-(3-pyridyl)pyrrolo[3,2-c]pyridin-6-amine] | 30 to 50%
Cn1c(-c2ccsc2)cc2c(Nc3ccc(S(C)(=O)=O)cc3)nccc21 [Compound 289, 1-methyl-N-(4-methylsulfonylphenyl)-2-(3-thienyl)pyrrolo[3,2-c]pyridin-4-amine] | 30 to 50%
CC(=O)N(C)c1cccc(-c2cc3cnc(Nc4ccc(C#N)cc4)cc3n2C)c1 [Compound 168, N-[3-[6-(4-cyanoanilino)-1-methyl-pyrrolo[3,2-c]pyridin-2-yl]phenyl]-N-methyl-acetamide] | 30 to 50%
Cn1c(NCC2CCCO2)nc2cnc(-c3cccs3)cc21 (stereo not drawn) [Compound 852, 1-methyl-N-(tetrahydrofuran-2-ylmethyl)-6-(2-thienyl)imidazo[4,5-c]pyridin-2-amine] | 30 to 50%

same assay, conditions: insulin HTRF, supernatant of beta-TC6 cells, incubation with test compound at 37°C for 2, 3, 4h

SMILES | Ar (relative activity)
CNc1nc2cnc(-c3ccc(N(C)C)cc3)cc2n1-c1ccccc1 [Compound 781, 6-(4-dimethylaminophenyl)-N-methyl-1-phenyl-imidazo[4,5-c]pyridin-2-amine] | +++ (50 % ≤ Ar < 100 %)
CNc1nc2cnc(-c3ccc(N(C)C)cc3)cc2n1-c1ccccc1 [Compound 501, 6-(4-dimethylaminophenyl)-N-methyl-1-phenyl-imidazo[4,5-c]pyridin-2-amine] | ++++ (Ar ≥ 100 %)

— patent publication EP2818472A1, “Imidazo[4,5-c]pyridine and pyrrolo[3,2-c]pyridine compounds as G-protein-coupled receptor kinase 5 (GRK5) modulators” (Max-Planck-Gesellschaft zur Förderung der Wissenschaften …, priority 2013, dated 2014)
